Results published in PubChem BioAssay AID651549 (Sanford-Burnham Center for Chemical Genomics, 2012).
Active and inactive are the calls of the source.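 The calls were made as follows: active = compounds blocking the PEG3 reporter with IC50 up to 10 µM at either incubation, yet sparing the GAPDH control reporter; inactive = the rest.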

Assay: GAPDH and PEG-3 promoter luciferase suppression – cell-based, luminescence, set 2, counter-screen for PEG-3 promoter inhibitor project, dose response (AID 651549)
Details: HeLa PEG-Prom-luciferase or GAPDH-reporter, 6/24 h

| Compound | IC50 (GAPDH, run 1, 6 h) | IC50 (GAPDH, run 1, 24 h) | IC50 (PEG-3, run 1, 6 h) | IC50 (PEG-3, run 1, 24 h) |
| --- | --- | --- | --- | --- |
| CC1CC(C)C(=O)C(C(CC2CC(=O)NC(=O)C2)OC(=O)CC(=O)c2ccccc2)C1 (centres undefined) | 1.36 µM | 7.25 µM | 5.46 µM | inactive |
| Cc1cc(C)cc(NS(=O)(=O)c2ccc3[nH]cc(C(=O)NCc4ccco4)c(=O)c3c2)c1 | inactive | 2.43 µM | > 99 µM (inactive) | 5.44 µM |
| CCOC(=O)c1ccc2nc(Nc3nc4ccc(F)cc4s3)sc2c1 | > 99 µM (inactive) | > 99 µM (inactive) | 0.31 µM | < 1 µM |
| Cc1oc(-c2ccc3c(c2)OCCO3)cc1C(=O)O | 4.9 µM | 7.36 µM | 7.66 µM | inactive |
| CC(=O)c1sc2c(c1OC(=O)c1ccc(Cl)cc1Cl)c(=O)n(-c1ccccc1)c(=S)n2-c1ccccc1 | 0.853 µM | 0.766 µM | > 99 µM (inactive) | 5.59 µM |
| C[C@]12CC[C@H]3C(CCC4(O)CC(O)CC[C@]34C=O)C1=CC[C@H]2c1ccc(=O)oc1 (some centres undefined) | 3.59 µM | inactive | 1.52 µM | 7.64 µM |
| CS(=O)(=O)c1ccc(-c2cn3cc(C(=O)O)ccc3n2)cc1 | inactive | 3.4 µM | inactive | inactive |
| CCn1cc(C(=O)NCc2ccco2)c(=O)c2cc(S(=O)(=O)N3CC(C)CC(C)C3)ccc21 (centres undefined) | inactive | 2.7 µM | > 99 µM (inactive) | 2.63 µM |
| O=C(O)c1ccc2nc(-c3ccccc3)sc2c1 | 6.04 µM | 0.72 µM | 7.05 µM | 7.03 µM |
| CC(CCc1ccccc1)NC(=O)COC(=O)c1ccc(S(C)(=O)=O)c([N+](=O)[O-])c1 (centres undefined) | inactive | inactive | inactive | 9.86 µM |
| COC(=O)C1=C(CN2CCCc3ccccc32)NC(=O)NC1c1ccc(F)cc1 (centres undefined) | 1.39 µM | 0.789 µM | 0.625 µM | 0.681 µM |
| Cc1ccc(S(=O)(=O)NC(CC(C)C)C(=O)NCC(c2ccco2)N2CCCCC2)cc1 (centres undefined) | inactive | inactive | inactive | inactive |
| O=C(COc1ccc2c(c1)CCC2)Nc1ccccn1 | 2.7 µM | 1.82 µM | 2.41 µM | 5.02 µM |
| CN1OC[C@@H]2CN(S(=O)(=O)c3cccc(C(F)(F)F)c3)[C@H](c3ccc(-c4cc5ccccc5o4)cc3)C[C@@H]21 | inactive | 6.66 µM | inactive | inactive |
| Cc1c(CN2CCC(CO)(CCOc3ccccc3)CC2)[nH]c2c(Cl)cccc12 | inactive | inactive | inactive | inactive |
| COc1ccc2[nH]c(=O)c(CN(Cc3cccnc3)S(=O)(=O)c3ccccc3F)cc2c1 | inactive | 5.38 µM | > 99 µM (inactive) | inactive |
| NC(=O)c1cc([N+](=O)[O-])ccc1NCc1ccc(N)cc1 | inactive | inactive | inactive | 7.33 µM |
| CC1CCN(c2nc3ccc(C(=O)O)cc3s2)CC1 | 1.93 µM | 2.14 µM | 1.01 µM | 1.51 µM |
| CC(C)(C)c1ccc(Cn2c(=O)cnc3ccccc32)cc1 | 6 µM | 6.64 µM | 3.47 µM | inactive |
| CCC(c1nnnn1-c1ccc2c(c1)OCCO2)N1CCC(n2c(=O)[nH]c3ccccc32)CC1 (centres undefined) | inactive | 4.01 µM | inactive | inactive |
| CC(=O)OC1CC2(O)C3CCC4CC(O)CCC4(C)C3CCC2(C)C1C1=CC(=O)OC1 (centres undefined) | 0.416 µM | 0.458 µM | > 99 µM (inactive) | 0.499 µM |
| O=C(c1ccco1)N1CCN(C(c2ccccc2Cl)c2nnnn2Cc2cccs2)CC1 (centres undefined) | inactive | inactive | > 99 µM (inactive) | inactive |
| COc1cc2nc(CN3CC=C(c4ccccc4)CC3)[nH]c(=O)c2cc1OC | inactive | inactive | inactive | inactive |
| CS(=O)(=O)Nc1cccc(NC(=O)C2Cc3c(-c4ccccc4)ccnc3O2)c1 (centres undefined) | > 99 µM (inactive) | 4.26 µM | > 99 µM (inactive) | 5.57 µM |
| Cc1cccc(-n2cc(-c3ccccc3)c3c(N4CCOCC4)ncnc32)c1 | > 99 µM (inactive) | inactive | > 99 µM (inactive) | inactive |
| CCC1(O)C(=O)OCc2c1cc1n(c2=O)Cc2cc3cc(O)ccc3nc2-1 (centres undefined) | 3.1 µM | 4.36 µM | 3.1 µM | 9.31 µM |
